Laboratory results published in ChEMBL document CHEMBL6109104, “Synthesis and antibacterial evaluations of novel vancomycin analogues targeting bacteria membrane to combat Gram-negative infections” (Eur J Med Chem, 2025).
Converted amounts (≈) assume the structure as drawn.

Experiments:
Format in all cases: functional
Conditions in all cases: time 16-18 hrs
Escherichia coli [1] = experiment: Antibacterial activity against Escherichia coli ATCC25922 incubated for 16 to 18 hrs by muller hinton broth based microplate reader analysis
Acinetobacter baumannii [2] = experiment: Antibacterial activity against Acinetobacter baumannii ATCC19606 incubated for 16 to 18 hrs by muller hinton broth based microplate reader analysis
Staphylococcus aureus [3] = experiment: Antibacterial activity against methicillin-resistant Staphylococcus aureus USA300 incubated for 16 to 18 hrs by muller hinton broth based microplate reader analysis
Staphylococcus aureus [4] = experiment: Antibacterial activity vancomycin-intermediate resistant Staphylococcus aureus incubated for 16 to 18 hrs by muller hinton broth based microplate reader analysis
Escherichia coli [5] = experiment: Antibacterial activity against Escherichia coli ATCC35150 incubated for 16 to 18 hrs by muller hinton broth based microplate reader analysis
Acinetobacter baumannii [6] = experiment: Antibacterial activity against Acinetobacter baumannii ATCC17978 incubated for 16 to 18 hrs by muller hinton broth based microplate reader analysis

SMILES	MIC (Escherichia coli [1])	MIC (Acinetobacter baumannii [2])	MIC (Staphylococcus aureus [3])	MIC (Staphylococcus aureus [4])	MIC (Escherichia coli [5])	MIC (Acinetobacter baumannii [6])
CN[C@H](CC(C)C)C(=O)N[C@H]1C(=O)N[C@@H](CC(N)=O)C(=O)N[C@H]2C(=O)N[C@H]3C(=O)N[C@H](C(=O)N[C@H](C(=O)O)c4cc(O)cc(O)c4-c4cc3ccc4O)[C@H](O)c3ccc(c(Cl)c3)Oc3cc2cc(c3O[C@@H]2O[C@H](CO)[C@@H](O)[C@H](O)[C@H]2O[C@H]2C[C@](C)(NC(=O)CCCCCCCCCCC[n+]3cccc(F)c3)[C@H](O)[C@H](C)O2)Oc2ccc(cc2Cl)[C@H]1O.[Br-]	> 128 µg/mL	> 128 µg/mL	4 µg/mL	64 µg/mL	> 128 µg/mL	> 128 µg/mL
CCCCCCCCCCCCCCCC[N+]1(C)CCN(C(=O)[C@H]2NC(=O)[C@H]3NC(=O)[C@H](NC(=O)[C@@H]4NC(=O)[C@H](CC(N)=O)NC(=O)[C@H](NC(=O)[C@@H](CC(C)C)NC)[C@H](O)c5ccc(c(Cl)c5)Oc5cc4cc(c5O[C@@H]4O[C@H](CO)[C@@H](O)[C@H](O)[C@H]4O[C@H]4C[C@](C)(N)[C@H](O)[C@H](C)O4)Oc4ccc(cc4Cl)[C@H]3O)c3ccc(O)c(c3)-c3c(O)cc(O)cc32)CC1.[Br-] (stereo in doubt)	64 µg/mL	> 128 µg/mL	8 µg/mL	> 128 µg/mL	> 128 µg/mL	> 128 µg/mL
CCCCCCCCCCCCCC[n+]1ccc(C(=O)NCCNC(=O)[C@H]2NC(=O)[C@H]3NC(=O)[C@H](NC(=O)[C@@H]4NC(=O)[C@H](CC(N)=O)NC(=O)[C@H](NC(=O)[C@@H](CC(C)C)NC)[C@H](O)c5ccc(c(Cl)c5)Oc5cc4cc(c5O[C@@H]4O[C@H](CO)[C@@H](O)[C@H](O)[C@H]4O[C@H]4C[C@](C)(N)[C@H](O)[C@H](C)O4)Oc4ccc(cc4Cl)[C@H]3O)c3ccc(O)c(c3)-c3c(O)cc(O)cc32)cc1.[Br-] (stereo in doubt)	> 128 µg/mL	> 128 µg/mL	4 µg/mL	64 µg/mL	> 128 µg/mL	> 128 µg/mL
CN[C@H](CC(C)C)C(=O)N[C@H]1C(=O)N[C@@H](CC(N)=O)C(=O)N[C@H]2C(=O)N[C@H]3C(=O)N[C@H](C(=O)N[C@H](C(=O)O)c4cc(O)cc(O)c4-c4cc3ccc4O)[C@H](O)c3ccc(c(Cl)c3)Oc3cc2cc(c3O[C@@H]2O[C@H](CO)[C@@H](O)[C@H](O)[C@H]2O[C@H]2C[C@](C)(NC(=O)CCCCCCCCCCC[n+]3cccc(NC(=O)OC(C)(C)C)c3)[C@H](O)[C@H](C)O2)Oc2ccc(cc2Cl)[C@H]1O.[Br-]	> 128 µg/mL	> 128 µg/mL	4 µg/mL	> 128 µg/mL	> 128 µg/mL	> 128 µg/mL
CN[C@H](CC(C)C)C(=O)N[C@H]1C(=O)N[C@@H](CC(N)=O)C(=O)N[C@H]2C(=O)N[C@H]3C(=O)N[C@H](C(=O)N[C@H](C(=O)O)c4cc(O)cc(O)c4-c4cc3ccc4O)[C@H](O)c3ccc(c(Cl)c3)Oc3cc2cc(c3O[C@@H]2O[C@H](CO)[C@@H](O)[C@H](O)[C@H]2O[C@H]2C[C@](C)(NC(=O)CCCCCCCCCCC[n+]3ccccc3)[C@H](O)[C@H](C)O2)Oc2ccc(cc2Cl)[C@H]1O.[Br-]	> 128 µg/mL	> 128 µg/mL	4 µg/mL	64 µg/mL	> 128 µg/mL	> 128 µg/mL
CN[C@H](CC(C)C)C(=O)N[C@H]1C(=O)N[C@@H](CC(N)=O)C(=O)N[C@H]2C(=O)N[C@H]3C(=O)N[C@H](C(=O)N[C@H](C(=O)O)c4cc(O)cc(O)c4-c4cc3ccc4O)[C@H](O)c3ccc(c(Cl)c3)Oc3cc2cc(c3O[C@@H]2O[C@H](CO)[C@@H](O)[C@H](O)[C@H]2O[C@H]2C[C@](C)(NC(=O)CCCCCCCCCCC[n+]3cccc(Br)c3)[C@H](O)[C@H](C)O2)Oc2ccc(cc2Cl)[C@H]1O.[Br-]	> 128 µg/mL	> 128 µg/mL	4 µg/mL	32 µg/mL	> 128 µg/mL	> 128 µg/mL
CCCCCCCCCCCCCCCCCC[N+]1(C)CCN(C(=O)[C@H]2NC(=O)[C@H]3NC(=O)[C@H](NC(=O)[C@@H]4NC(=O)[C@H](CC(N)=O)NC(=O)[C@H](NC(=O)[C@@H](CC(C)C)NC)[C@H](O)c5ccc(c(Cl)c5)Oc5cc4cc(c5O[C@@H]4O[C@H](CO)[C@@H](O)[C@H](O)[C@H]4O[C@H]4C[C@](C)(N)[C@H](O)[C@H](C)O4)Oc4ccc(cc4Cl)[C@H]3O)c3ccc(O)c(c3)-c3c(O)cc(O)cc32)CC1.[Br-] (stereo in doubt)	> 128 µg/mL	> 128 µg/mL	1 µg/mL	64 µg/mL	> 128 µg/mL	> 128 µg/mL
CN[C@H](CC(C)C)C(=O)N[C@H]1C(=O)N[C@@H](CC(N)=O)C(=O)N[C@H]2C(=O)N[C@H]3C(=O)N[C@H](C(=O)N[C@H](C(=O)O)c4cc(O)cc(O)c4-c4cc3ccc4O)[C@H](O)c3ccc(c(Cl)c3)Oc3cc2cc(c3O[C@@H]2O[C@H](CO)[C@@H](O)[C@H](O)[C@H]2O[C@H]2C[C@](C)(NC(=O)CCCCCCCCCCC[n+]3cccc(O)c3)[C@H](O)[C@H](C)O2)Oc2ccc(cc2Cl)[C@H]1O.[Br-]	> 128 µg/mL	> 128 µg/mL	8 µg/mL	64 µg/mL	> 128 µg/mL	> 128 µg/mL
CN[C@H](CC(C)C)C(=O)N[C@H]1C(=O)N[C@@H](CC(N)=O)C(=O)N[C@H]2C(=O)N[C@H]3C(=O)N[C@H](C(=O)N[C@H](C(=O)N4CCN(C)CC4)c4cc(O)cc(O)c4-c4cc3ccc4O)[C@H](O)c3ccc(c(Cl)c3)Oc3cc2cc(c3O[C@@H]2O[C@H](CO)[C@@H](O)[C@H](O)[C@H]2O[C@H]2C[C@](C)(N)[C@H](O)[C@H](C)O2)Oc2ccc(cc2Cl)[C@H]1O (stereo in doubt)	> 128 µg/mL	> 128 µg/mL	4 µg/mL (≈ 2.61 µM)	> 128 µg/mL	> 128 µg/mL	> 128 µg/mL
CCCCCCCCCCCCCC[N+]1(C)CCN(C(=O)c2ccc(CN[C@@]3(C)C[C@H](O[C@H]4[C@H](Oc5c6cc7cc5Oc5ccc(cc5Cl)[C@@H](O)[C@@H](NC(=O)[C@@H](CC(C)C)NC)C(=O)N[C@@H](CC(N)=O)C(=O)N[C@H]7C(=O)N[C@H]5C(=O)N[C@H](C(=O)N[C@H](C(=O)O)c7cc(O)cc(O)c7-c7cc5ccc7O)[C@H](O)c5ccc(c(Cl)c5)O6)O[C@H](CO)[C@@H](O)[C@@H]4O)O[C@@H](C)[C@H]3O)cc2)CC1.[Br-]	> 128 µg/mL	> 128 µg/mL	2 µg/mL	64 µg/mL	> 128 µg/mL	> 128 µg/mL
CCCCCCCCCCCCCC[N+]1(C)CCN(C(=O)[C@H]2NC(=O)[C@H]3NC(=O)[C@H](NC(=O)[C@@H]4NC(=O)[C@H](CC(N)=O)NC(=O)[C@H](NC(=O)[C@@H](CC(C)C)NC)[C@H](O)c5ccc(c(Cl)c5)Oc5cc4cc(c5O[C@@H]4O[C@H](CO)[C@@H](O)[C@H](O)[C@H]4O[C@H]4C[C@](C)(N)[C@H](O)[C@H](C)O4)Oc4ccc(cc4Cl)[C@H]3O)c3ccc(O)c(c3)-c3c(O)cc(O)cc32)CC1.[Br-] (stereo in doubt)	32 µg/mL	32 µg/mL	1 µg/mL	32 µg/mL	32 µg/mL	32 µg/mL
